One assay has as its target T1, RORγ-LBD (Homo sapiens, UniProt P51449).
T1 construct: made in house; host or cells: SF9 cells (baculovirus); used as diluted lysate
T1 sequence (P51449 269-508 limits assumed): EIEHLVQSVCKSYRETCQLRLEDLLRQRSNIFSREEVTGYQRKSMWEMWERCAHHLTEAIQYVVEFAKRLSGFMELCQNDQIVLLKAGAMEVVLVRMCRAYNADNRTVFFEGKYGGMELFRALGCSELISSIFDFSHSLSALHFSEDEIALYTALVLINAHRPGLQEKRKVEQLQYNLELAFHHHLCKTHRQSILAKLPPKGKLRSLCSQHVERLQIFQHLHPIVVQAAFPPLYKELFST
As to the kind of experiment: RORγ-Ligand Binding Domain (LBD) TR-FRET Assay. It is filed as biochemical. The conditions noted are these: RORγ-LBD TR-FRET. In outline:
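This TR-FRET coactivator assay pairs baculovirus-expressed His-RORγ-LBD (~3 nM final) with biotin-SRC1 LXXLL peptide at 200 nM final in pH 7.0 Tris/KCl/EDTA/DTT/BSA buffer.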
For orientation: In TR-FRET formats the signal depends on donor and acceptor labels being close together.

The target of the next assay is T2, Gal4-RORγ-LBD (Homo sapiens, UniProt P51449).
T2 construct: expressed in transfected cells
T2 sequence (P51449 269-508 limits assumed): T1 sequence (P51449 269-508 limits assumed)
In words: Gal4-RORγ Luciferase Reporter Assay in HEK-293T Cells. It is filed as cell-based. As to conditions: HEK-293 cells, luciferase reporter, with ursolic acid. A digest of the protocol:
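HEK-293 cells were co-transfected with Gal4-RORγ-LBD and a Gal4-luciferase reporter, then exposed overnight at 37 °C to compounds with […] ursolic acid present (0.2% DMSO). Luminescence was read with One-Glo after 10 min at RT, untreated signal was set as 100, and Max Response was taken as the upper plateau of a 4-parameter logistic fit.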
On the technique in general: In a reporter assay the amount or activity of a reporter protein is the signal.

This note sets out measurements from patent publication US9896441B2 (Lycera Corporation, priority 2014, dated 2018).

As a reminder, the EC50 is the midpoint of the concentration-response curve. The low end stands for greater potency, the high end for weaker potency. Turning to `O=C(O)CC[C@H]1CN(S(=O)(=O)c2cccc(C(F)(F)F)c2)c2cc(C=C3CCC(O)CC3)ccc2O1` (stereo partly shown) [Example 94], the concentration giving a half-maximal response (EC50) was under 500 nM at RORγ-LBD and 500 to 5000 nM on Gal4-RORγ-LBD.

Consider `C[C@@H]1C/C(=C\c2ccc3c(c2)N(S(=O)(=O)c2cc(C(F)(F)F)cnc2OCCO)C[C@H](CCC(=O)O)O3)C[C@H](C)C1` [Example 95AA, 3-((S)-6-((E)-((3R,5S)-3,5-dimethylcyclohexylidene)-methyl)-4-((2-(2-hydroxy-ethoxy)-5-(trifluoromethyl)-pyridin-3-yl)sulfonyl)-3,4-dihydro-2H-benzo[b][1,4]oxazin-2-yl)propanoic acid], for which the figures for the EC50 on RORγ-LBD and at Gal4-RORγ-LBD were under 500 nM and 500 to 5000 nM, respectively.

Consider `CC(C)=Cc1ccc2c(c1)N(S(=O)(=O)c1cccc(C(F)(F)F)c1)C[C@H](CCC(=O)O)O2` [Example 95AB, (S)-3-(6-(2-methylprop-1-en-1-yl)-4-((3-(trifluoromethyl)-phenyl)sulfonyl)-3,4-dihydro-2H-benzo[b][1,4]oxazin-2-yl)propanoic acid], for which the EC50 at RORγ-LBD was under 500 nM; on Gal4-RORγ-LBD, 500 to 5000 nM.

As for `COC(=O)CC[C@H]1CN(S(=O)(=O)c2cc(C(F)(F)F)cnc2OCCO)c2cc(C=C(C)C)ccc2O1` [Example 95AD, methyl (S)-3-(4-((2-(2-hydroxyethoxy)-5-(trifluoromethyl)pyridin-3-yl)sulfonyl)-6-(2-methylprop-1-en-1-yl)-3,4-dihydro-2H-benzo[b][1,4]oxazin-2-yl)propanoic acid], the results for the EC50 at RORγ-LBD and on Gal4-RORγ-LBD were under 500 nM and 500 to 5000 nM, respectively.

In the case of `CCOc1ncc(C(F)(F)F)cc1S(=O)(=O)N1C[C@H](CCC(=O)O)Oc2ccc(C=C3CCCCC3)cc21` [Example 95B, (S)-3-(6-(cyclohexylidenemethyl)-4-((2-ethoxy-5-(trifluoromethyl)pyridin-3-yl)sulfonyl)-3,4-dihydro-2H-benzo[b][1,4]oxazin-2-yl)propanoic acid], the 50% effective concentration (EC50) at RORγ-LBD is under 500 nM; on Gal4-RORγ-LBD it was 500 to 5000 nM.

On to `O=C(O)CC[C@H]1CN(S(=O)(=O)c2cc(C(F)(F)F)cnc2OCCO)c2cc(C=C3CCCCC3)ccc2O1` [Example 95C, (S)-3-(6-(cyclohexylidenemethyl)-4-((2-(2-hydroxyethoxy)-5-(trifluoromethyl)pyridin-3-yl)sulfonyl)-3,4-dihydro-2H-benzo[b][1,4]oxazin-2-yl)propanoic acid], for which the EC50 was under 500 nM on RORγ-LBD and 500 to 5000 nM at Gal4-RORγ-LBD.

Turning to `O=C(O)CC[C@H]1CN(S(=O)(=O)c2cc(C(F)(F)F)cnc2OCCO)c2cc(CC3CCCCC3)ccc2O1` [Example 95D, (S)-3-(6-(cyclohexylmethyl)-4-((2-(2-hydroxyethoxy)-5-(trifluoromethyl)pyridin-3-yl)sulfonyl)-3,4-dihydro-2H-benzo[b][1,4]oxazin-2-yl)propanoic acid], the concentration giving a half-maximal response (EC50) at RORγ-LBD is under 500 nM; on Gal4-RORγ-LBD it was 500 to 5000 nM.

In the case of `CCC(=Cc1ccc2c(c1)N(S(=O)(=O)c1cccc(C(F)(F)F)c1)C[C@H](CCC(=O)O)O2)CC` [Example 95E, (S)-3-(6-(2-ethylbut-1-en-1-yl)-4-((3-(trifluoromethyl)phenyl)-sulfonyl)-3,4-dihydro-2H-benzo[b][1,4]oxazin-2-yl)propanoic acid], the EC50 on RORγ-LBD and at Gal4-RORγ-LBD was under 500 nM throughout.

As for `CCC(=Cc1ccc2c(c1)N(S(=O)(=O)c1cc(C(F)(F)F)cnc1OCCO)C[C@H](CCC(=O)O)O2)CC` [Example 95F, (S)-3-(6-(2-ethylbut-1-en-1-yl)-4-((2-(2-hydroxyethoxy)-5-(trifluoromethyl)pyridin-3-yl)sulfonyl)-3,4-dihydro-2H-benzo[b][1,4]oxazin-2-yl)propanoic acid], the EC50 on RORγ-LBD is under 500 nM; at Gal4-RORγ-LBD, 500 to 5000 nM.

For `CC1CCC/C(=C\c2ccc3c(c2)N(S(=O)(=O)c2cccc(C(F)(F)F)c2)C[C@H](CCC(=O)O)O3)C1` (stereo partly drawn) [Example 95G, 3-((2S)-6-((E)-(3-methylcyclo-hexylidene)methyl)-4-((3-(trifluoromethyl)phenyl)sulfonyl)-3,4-dihydro-2H-benzo[b][1,4]-oxazin-2-yl)propanoic acid], the concentration giving a half-maximal response (EC50) on RORγ-LBD was under 500 nM; on Gal4-RORγ-LBD, 500 to 5000 nM.

As to `CC1(C)CCC(=Cc2ccc3c(c2)N(S(=O)(=O)c2cccc(C(F)(F)F)c2)C[C@H](CCC(=O)O)O3)CC1` [Example 95H, (S)-3-(6-((4,4-dimethylcyclo-hexylidene)methyl)-4-((3-(trifluoromethyl)phenyl)sulfonyl)-3,4-dihydro-2H-benzo[b][1,4]oxazin-2-yl)propanoic acid], the results for the EC50 at RORγ-LBD and at Gal4-RORγ-LBD were under 500 nM and 500 to 5000 nM, respectively.

In the case of `O=C(O)CC[C@H]1CN(S(=O)(=O)c2cccc(C(F)(F)F)c2)c2cc(/C=C3/CCCOC3)ccc2O1` [Example 95J, (S,Z)-3-(6-((dihydro-2H-pyran-3(4H)-ylidene)methyl)-4-((3-(trifluoromethyl)phenyl)sulfonyl)-3,4-dihydro-2H-benzo[b][1,4]oxazin-2-yl)propanoic acid], the 50% effective concentration (EC50) at RORγ-LBD was under 500 nM; on Gal4-RORγ-LBD it was 500 to 5000 nM.

As for `CC1CCC(=Cc2ccc3c(c2)N(S(=O)(=O)c2cccc(C(F)(F)F)c2)C[C@H](CCC(=O)O)O3)CC1` (stereo partly drawn) [Example 95K, 3-((2S)-6-((4-methylcyclo-hexylidene)methyl)-4-((3-(trifluoromethyl)phenyl)sulfonyl)-3,4-dihydro-2H-benzo[b][1,4]oxazin-2-yl)propanoic acid], the results for the concentration giving a half-maximal response (EC50) at RORγ-LBD and at Gal4-RORγ-LBD were under 500 nM and 500 to 5000 nM, respectively.

For the compound `O=C(O)CC[C@H]1CN(S(=O)(=O)c2cccc(C(F)(F)F)c2)c2cc(C=C3CCC(F)(F)CC3)ccc2O1` [Example 95L, (S)-3-(6-((4,4-difluorocyclo-hexylidene)methyl)-4-((3-(trifluoromethyl)phenyl)sulfonyl)-3,4-dihydro-2H-benzo[b][1,4]oxazin-2-yl)propanoic acid], the 50% effective concentration (EC50) on RORγ-LBD and on Gal4-RORγ-LBD was under 500 nM throughout.

`O=C(O)CC[C@H]1CN(S(=O)(=O)c2cc(C(F)(F)F)cnc2OCCO)c2cc(C=C3CCC(F)(F)CC3)ccc2O1` [Example 95M, (S)-3-(6-((4,4-difluorocyclohexylidene)methyl)-4-((2-(2-hydroxyethoxy)-5-(trifluoromethyl)pyridin-3-yl)sulfonyl)-3,4-dihydro-2H-benzo[b][1,4]oxazin-2-yl)propanoic acid]: the concentration for a half-maximal effect (EC50) on RORγ-LBD is under 500 nM; on Gal4-RORγ-LBD, 500 to 5000 nM.

In the case of `O=C(O)CC[C@H]1CN(S(=O)(=O)c2cccc(C(F)(F)F)c2)c2cc(C=C3CCOCC3)ccc2O1` [Example 95N, (S)-3-(6-((tetrahydro-4H-pyran-4-ylidene)methyl)-4-((3-(trifluoromethyl)phenyl)sulfonyl)-3,4-dihydro-2H-benzo[b][1,4]oxazin-2-yl)propanoic acid], the concentration giving a half-maximal response (EC50) was under 500 nM at RORγ-LBD and 500 to 5000 nM at Gal4-RORγ-LBD.

With `O=C(O)CC[C@H]1CN(S(=O)(=O)c2cc(C(F)(F)F)cnc2OCCO)c2cc(C=C3CCOCC3)ccc2O1` [Example 95O, (S)-3-(4-((2-(2-hydroxyethoxy)-5-(trifluoromethyl)pyridin-3-yl)sulfonyl)-6-((tetrahydro-4H-pyran-4-ylidene)methyl)-3,4-dihydro-2H-benzo[b][1,4]oxazin-2-yl)propanoic acid], the 50% effective concentration (EC50) is under 500 nM at RORγ-LBD and 500 to 5000 nM on Gal4-RORγ-LBD.
